Activity calls are given as the source filed them. No cut-off for these calls is given here.
Legend:
MCF7 [1] = assay: Antiproliferative activity against human MCF7 cells assessed as inhibition of cell growth incubated for 72 hrs by MTT assay; type: functional, cell-based; conditions: MCF7, 72 h
MDA-MB-231 = assay: Antiproliferative activity against human MDA-MB-231 cells assessed as inhibition of cell growth incubated for 72 hrs by MTT assay; type: functional, cell-based; conditions: MDA-MB-231, 72 h
[2] = Cytotoxicity against human THP-1 cells assessed as inhibition of cell growth incubated for 72 hrs by MTT assay; type: toxicity, cell-based
[3] = target: T1, Steroid 17-alpha-hydroxylase/17,20 lyase (Homo sapiens, UniProt P05093); assay: Binding affinity to recombinant human CYP17A1 by spectrophotometric titration method; type: ADME; conditions: recombinant enzyme
T1 sequence (P05093 whole entry): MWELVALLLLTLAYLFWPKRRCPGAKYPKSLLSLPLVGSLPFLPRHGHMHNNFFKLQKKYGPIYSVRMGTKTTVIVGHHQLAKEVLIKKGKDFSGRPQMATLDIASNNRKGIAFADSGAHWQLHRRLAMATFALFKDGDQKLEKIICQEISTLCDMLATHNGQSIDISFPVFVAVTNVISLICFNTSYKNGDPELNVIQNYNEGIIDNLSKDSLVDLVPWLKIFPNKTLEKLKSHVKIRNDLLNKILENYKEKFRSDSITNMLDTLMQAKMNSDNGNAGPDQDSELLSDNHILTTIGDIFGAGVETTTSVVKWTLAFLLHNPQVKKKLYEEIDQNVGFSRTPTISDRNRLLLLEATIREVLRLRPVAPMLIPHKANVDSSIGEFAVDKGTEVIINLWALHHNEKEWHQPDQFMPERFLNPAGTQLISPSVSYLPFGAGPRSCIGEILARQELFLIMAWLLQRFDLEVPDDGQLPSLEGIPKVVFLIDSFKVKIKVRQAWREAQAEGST

Aromatase = target: T2, Aromatase (Homo sapiens, UniProt P11511); assay: Binding affinity to recombinant human CYP19A1 by spectrophotometric titration method; type: ADME; conditions: recombinant enzyme
T2 sequence (P11511 whole entry): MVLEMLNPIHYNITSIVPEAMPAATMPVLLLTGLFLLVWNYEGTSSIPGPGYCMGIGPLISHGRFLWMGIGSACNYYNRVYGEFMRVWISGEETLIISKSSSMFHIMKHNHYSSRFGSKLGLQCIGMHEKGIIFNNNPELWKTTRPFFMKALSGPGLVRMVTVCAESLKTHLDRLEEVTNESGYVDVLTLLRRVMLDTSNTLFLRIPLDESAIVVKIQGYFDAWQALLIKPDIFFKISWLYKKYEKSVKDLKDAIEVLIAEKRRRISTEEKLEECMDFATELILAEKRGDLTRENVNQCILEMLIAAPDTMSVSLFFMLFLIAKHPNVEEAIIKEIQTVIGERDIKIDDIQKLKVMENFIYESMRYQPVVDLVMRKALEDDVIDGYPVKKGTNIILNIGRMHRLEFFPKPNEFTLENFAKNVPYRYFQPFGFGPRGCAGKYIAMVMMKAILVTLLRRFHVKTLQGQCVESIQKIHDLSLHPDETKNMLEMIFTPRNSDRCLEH

MCF7 [4] = assay: Anti-estrogenic activity in human MCF7 cells assessed as reduction in ERalpha protein expression at 1.7 to 15 uM measured after 48 hrs by immunoblot analysis; type: functional, cell-based; conditions: dose 1.7-15 µM
MCF7 [5] = assay: Anti-estrogenic activity in human MCF7 cells assessed as reduction in GREB1 protein expression at 1.7 to 15 uM measured after 48 hrs by immunoblot analysis; type: functional, cell-based; conditions: dose 1.7-15 µM
MCF7 [6] = assay: Effect on E-cadherin protein expression in human MCF7 cells at 1.7 to 15 uM measured after 48 hrs by immunoblot analysis; type: functional, cell-based; conditions: dose 1.7-15 µM
MCF7 [7] = assay: Downregulation of cyclin D1 protein expression in human MCF7 cells at 1.7 to 15 uM measured after 48 hrs by immunoblot analysis; type: functional, cell-based; conditions: dose 1.7-15 µM
Steroid 21-hydroxylase = target: T3, Steroid 21-hydroxylase (Homo sapiens, UniProt P08686); assay: Binding affinity to recombinant human CYP21A2 by spectrophotometric titration method; type: ADME; conditions: recombinant enzyme
T3 sequence (P08686 whole entry): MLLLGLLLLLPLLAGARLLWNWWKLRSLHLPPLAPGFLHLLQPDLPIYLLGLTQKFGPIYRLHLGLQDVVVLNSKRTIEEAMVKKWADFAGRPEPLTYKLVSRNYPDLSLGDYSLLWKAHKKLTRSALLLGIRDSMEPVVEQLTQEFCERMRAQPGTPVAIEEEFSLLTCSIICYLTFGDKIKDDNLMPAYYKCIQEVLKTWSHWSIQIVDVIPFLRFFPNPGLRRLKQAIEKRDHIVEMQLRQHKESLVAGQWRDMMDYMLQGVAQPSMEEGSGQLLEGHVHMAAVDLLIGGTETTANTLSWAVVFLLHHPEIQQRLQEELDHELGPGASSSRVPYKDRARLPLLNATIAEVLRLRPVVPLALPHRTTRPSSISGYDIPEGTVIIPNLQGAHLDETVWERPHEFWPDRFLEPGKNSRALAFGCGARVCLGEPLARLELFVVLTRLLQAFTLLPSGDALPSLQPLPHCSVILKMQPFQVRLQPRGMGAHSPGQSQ

MCF7 [8] = assay: Effect on activated AKT protein level in human MCF7 cells at 1.7 to 15 uM measured after 48 hrs by immunoblot analysis; type: functional, cell-based; conditions: dose 1.7-15 µM
MCF7 [9] = assay: Induction of cell death in human MCF7 cells assessed as reduction in Bcl-2 protein expression measured after 48 hrs by immunoblot analysis; type: functional, cell-based; conditions: dose 1.7-15 µM
Cytochrome P450 7A1 = Cytochrome P450 7A1 (Homo sapiens, UniProt P22680); assay: Binding affinity to recombinant human CYP7A1 by spectrophotometric titration method; type: ADME; conditions: recombinant enzyme
MCF7 [10] = assay: Anti-estrogenic activity in human MCF7 cells transfected with luciferase gene under control of estrogen response elements cotransfected with beta-galactosidase assessed as reduction in 17beta-estradiol induced ERalpha protein expression by measuring reduction in luciferase activity measured after 24 hrs; type: functional, cell-based; conditions: dose 1.7-20 µM
MCF7 [11] = assay: Induction of cell death in human MCF7 cells assessed as accumulation of cleaved PARP level at 1.7 to 15 uM measured after 48 hrs by immunoblot analysis; type: functional, cell-based; conditions: dose 1.7-15 µM
Cytochrome P450 7B1 = target: T4, Cytochrome P450 7B1 (Homo sapiens, UniProt O75881); assay: Binding affinity to recombinant human CYP7B1 by spectrophotometric titration method; type: ADME; conditions: recombinant enzyme
T4 sequence (O75881 whole entry): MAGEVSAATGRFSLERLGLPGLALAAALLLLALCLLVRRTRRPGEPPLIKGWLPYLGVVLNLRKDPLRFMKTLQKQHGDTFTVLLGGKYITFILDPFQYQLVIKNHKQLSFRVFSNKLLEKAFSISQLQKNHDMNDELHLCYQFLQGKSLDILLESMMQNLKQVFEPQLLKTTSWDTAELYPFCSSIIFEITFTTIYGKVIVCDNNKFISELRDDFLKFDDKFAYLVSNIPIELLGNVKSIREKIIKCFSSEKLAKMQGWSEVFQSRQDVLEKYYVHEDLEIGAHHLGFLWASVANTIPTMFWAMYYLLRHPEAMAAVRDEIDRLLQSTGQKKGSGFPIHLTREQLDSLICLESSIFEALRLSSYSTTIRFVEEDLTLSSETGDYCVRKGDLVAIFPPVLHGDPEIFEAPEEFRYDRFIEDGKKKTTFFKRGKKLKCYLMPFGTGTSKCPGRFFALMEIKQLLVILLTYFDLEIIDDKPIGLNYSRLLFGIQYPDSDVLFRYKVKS

MCF7 [12] = assay: Downregulation of CDK4 protein expression in human MCF7 cells at 1.7 to 15 uM measured after 48 hrs by immunoblot analysis; type: functional, cell-based; conditions: dose 1.7-15 µM

Sequence of Cytochrome P450 7A1 (P22680 whole entry): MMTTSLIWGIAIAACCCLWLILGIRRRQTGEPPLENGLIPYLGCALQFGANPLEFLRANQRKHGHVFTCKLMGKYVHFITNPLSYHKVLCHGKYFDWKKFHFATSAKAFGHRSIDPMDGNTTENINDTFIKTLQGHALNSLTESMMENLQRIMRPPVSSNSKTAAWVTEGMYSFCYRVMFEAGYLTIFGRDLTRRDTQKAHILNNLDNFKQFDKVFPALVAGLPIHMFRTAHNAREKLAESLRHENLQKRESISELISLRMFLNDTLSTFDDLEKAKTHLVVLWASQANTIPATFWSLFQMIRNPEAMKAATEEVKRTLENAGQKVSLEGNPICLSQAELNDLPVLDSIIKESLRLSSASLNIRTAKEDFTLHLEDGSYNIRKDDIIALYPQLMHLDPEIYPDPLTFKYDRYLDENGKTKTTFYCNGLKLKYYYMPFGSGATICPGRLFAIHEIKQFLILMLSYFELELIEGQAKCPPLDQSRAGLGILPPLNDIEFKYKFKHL

Row | Compound | IC50 (MCF7 [1]) [µM] | IC50 (MDA-MB-231) [µM] | further results
1 | CC(C)(C)NP(=O)(NC(C)(C)C)c1nncc2c1[C@@]1(C)CC[C@H]3[C@@H](CC=C4CC(Cl)CC[C@@]43C)[C@@H]1C2 (stereo partly drawn) | 11.1 | 15.5 | –
2 | C[C@]12CCC(Cl)CC1=CC[C@@H]1[C@@H]2CC[C@]2(C)c3c(cnnc3P(=O)(Nc3ccccc3)Nc3ccccc3)C[C@@H]12 (stereo partly drawn) | > 25 | > 25 | –
3 | C[C@]12CC[C@H]3[C@@H](CCC4Cc5c(cnnc5P(=O)(c5ccccc5)c5ccccc5)C[C@@]43C)[C@@H]1CC[C@@H]2O (stereo partly drawn) | 7.1 | 8.9 | –
4 | CC/C(=C(\c1ccc(O)cc1)c1ccc(OCCN(C)C)cc1)c1ccccc1 [AFIMOXIFENE] | 5.2 | – | –
5 | C[C@]12CC[C@H](O)CC1=CC[C@@H]1[C@@H]2CC[C@]2(C)c3c(cnnc3P(=O)(Nc3ccccc3)Nc3ccccc3)C[C@@H]12 | 18.5 | > 25 | –
6 | COc1cccc2c1C(=O)c1c(O)c3c(c(O)c1C2=O)C[C@@](O)(C(=O)CO)C[C@@H]3O[C@H]1C[C@H](N)[C@H](O)[C@H](C)O1 [DOXORUBICIN] | 0.28 | 0.27 | IC50 at 72 h [2]: 0.045 µM
7 | COc1ccc2c(c1)CC[C@@H]1[C@@H]2CC[C@]2(C)c3c(cnnc3P(=O)(c3ccccc3)c3ccccc3)C[C@@H]12 | 8.6 | 13.5 | –
8 | CC(C)(C)NP(=O)(NC(C)(C)C)c1nncc2c1[C@@]1(C)CC[C@@H]3c4ccc(O)cc4CC[C@H]3[C@@H]1C2 | 22.6 | > 25 | –
9 | CC(=O)O[C@H]1CC[C@@]2(C)C(=CC[C@@H]3[C@@H]2CC[C@]2(C)c4c(cnnc4P(=O)(Nc4ccccc4)Nc4ccccc4)C[C@@H]32)C1 | > 25 | > 25 | –
10 | CC(C)(C)NP(=O)(NC(C)(C)C)c1nncc2c1[C@@]1(C)CC[C@H]3[C@@H](CCC4=CC(=O)CC[C@@]43C)[C@@H]1C2 | 18.6 | 20.7 | –
11 | COc1ccc2c(c1)CC[C@@H]1[C@@H]2CC[C@]2(C)c3c(cnnc3P(=O)(Nc3ccccc3)Nc3ccccc3)C[C@@H]12 | > 25 | > 25 | –
12 | C[C@]12CC[C@H](O)C[C@@H]1CC[C@@H]1[C@@H]2CC[C@]2(C)c3c(cnnc3P(=O)(Nc3ccccc3)Nc3ccccc3)C[C@@H]12 | 17 | > 25 | –
13 | CC(=O)O[C@H]1CC[C@@]2(C)C(=CC[C@@H]3[C@@H]2CC[C@]2(C)c4c(cnnc4P(=O)(c4ccccc4)c4ccccc4)C[C@@H]32)C1 | 14 | 17.7 | –
14 | CC(C)(C)NP(=O)(NC(C)(C)C)c1nncc2c1[C@@]1(C)CC[C@H]3[C@@H](CC=C4C[C@@H](O)CC[C@@]43C)[C@@H]1C2 | 24.7 | > 25 | –
15 | C[C@]12CC[C@H](O)CC1=CC[C@@H]1[C@@H]2CC[C@]2(C)c3c(cnnc3P(=O)(c3ccccc3)c3ccccc3)C[C@@H]12 | 17.5 | 7.4 | –
16 | C[C@]12CCC(=O)C=C1CC[C@@H]1[C@@H]2CC[C@]2(C)c3c(cnnc3P(=O)(c3ccccc3)c3ccccc3)C[C@@H]12 | 6.5 | 18.1 | Activity [3]: Not Active; Activity (Aromatase): Not Active; Activity (MCF7 [4]): Active; Activity (MCF7 [5]): inactive; Activity (MCF7 [6]): inactive; Activity (MCF7 [7]): Active; Activity (Steroid 21-hydroxylase): Not Active; Activity (MCF7 [8]): inactive; Activity (MCF7 [9]): Dose-Dependent Effect; Activity (Cytochrome P450 7A1): Not Active; Activity (MCF7 [10]): Dose-Dependent Effect; Activity (MCF7 [11]): Active; Activity (Cytochrome P450 7B1): Not Active; Activity (MCF7 [12]): Active
17 | C[C@]12CC[C@H]3[C@@H](CCC4Cc5c(cnnc5P(=O)(Nc5ccccc5)Nc5ccccc5)C[C@@]43C)[C@@H]1CC[C@@H]2O (stereo partly drawn) | 9.3 | 16.5 | –
18 | C[C@]12CC[C@@H]3c4ccc(O)cc4CC[C@H]3[C@@H]1Cc1cnnc(P(=O)(c3ccccc3)c3ccccc3)c12 | > 25 | > 25 | –
19 | CC(C)(C)NP(=O)(NC(C)(C)C)c1nncc2c1[C@@]1(C)CC[C@H]3[C@@H](CC[C@H]4C[C@@H](O)CC[C@@]43C)[C@@H]1C2 | > 25 | > 25 | –
20 | CC(=O)O[C@H]1CC[C@@]2(C)C(=CC[C@@H]3[C@@H]2CC[C@]2(C)c4c(cnnc4P(=O)(NC(C)(C)C)NC(C)(C)C)C[C@@H]32)C1 | 16.4 | > 25 | –
21 | COc1ccc2c(c1)CC[C@@H]1[C@@H]2CC[C@]2(C)c3c(cnnc3P(=O)(NC(C)(C)C)NC(C)(C)C)C[C@@H]12 | 12.7 | 16.7 | –
22 | C[C@]12CC[C@@H]3c4ccc(O)cc4CC[C@H]3[C@@H]1Cc1cnnc(P(=O)(Nc3ccccc3)Nc3ccccc3)c12 | > 25 | > 25 | –

Reference: ChEMBL document CHEMBL5550194, “Design and synthesis of phosphoryl-substituted steroidal pyridazines (Pho-STPYRs) as potent estrogen receptor alpha inhibitors: targeted treatment of hormone-dependent breast cancer cells” (RSC Med Chem, 2024)
